Results reported in patent EP4714949A1, “NOVEL COMPOUNDS CAPABLE OF INDUCING OSTEOGENIC DIFFERENTIATION” (AJOU UNIVERSITY INDUSTRY-ACADEMIC COOPERATION FOUNDATION, priority 2023, dated 2024).

Legend:
[1] = test system: p53; assay: p53 activation in hDPSCs (FIG. 2, compound and concentration selection); assay type: cell-based, Human
[2] = molecular target: T1, MDM2 (Homo sapiens, UniProt Q00987); assay: MDM2 protein degradation by Western blot (SDS-PAGE) in hDPSCs; assay type: cell-based; settings: FIG. 2, selection among initially selected compounds
T1 construct: evaluate the intracellular MDM2 protein degradation capacity; endogenous in cells; host or cells: human dental pulp stem cells (hDPSCs)
Description: Human dental pulp stem cell lines (hDPSCs) were treated with 14 types of synthesized MDM2-PROTACs (10 µM) for 1 hour and Western blot analysis using SDS-PAGE gel was performed to evaluate the intracellular MDM2 protein degradation capacity.

T1 sequence (Q00987 whole entry): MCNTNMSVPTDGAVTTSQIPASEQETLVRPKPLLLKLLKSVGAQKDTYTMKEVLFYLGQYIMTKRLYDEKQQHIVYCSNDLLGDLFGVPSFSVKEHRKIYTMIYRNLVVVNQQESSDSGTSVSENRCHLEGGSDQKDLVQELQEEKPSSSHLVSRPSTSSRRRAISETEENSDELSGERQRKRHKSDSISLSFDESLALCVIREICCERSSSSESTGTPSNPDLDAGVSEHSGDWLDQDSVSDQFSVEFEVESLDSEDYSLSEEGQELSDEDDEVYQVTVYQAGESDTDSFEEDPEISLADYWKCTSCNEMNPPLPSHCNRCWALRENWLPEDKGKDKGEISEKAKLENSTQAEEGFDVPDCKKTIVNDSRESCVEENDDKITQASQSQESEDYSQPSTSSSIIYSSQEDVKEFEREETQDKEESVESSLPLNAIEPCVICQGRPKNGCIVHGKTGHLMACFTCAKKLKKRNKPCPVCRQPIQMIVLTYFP

Row | MDM2 degradation [2] | SMILES | p53 activation [1]
1 | effectively degrade MDM2 | COc1ccc(C2=NC(c3ccc(Cl)cc3)C(c3ccc(Cl)cc3)N2C(=O)N2CCN(CC(=O)NCCCCCCCCOc3cccc4c3C(=O)N(C3CCC(=O)NC3=O)C4=O)C(=O)C2)c(OC(C)C)c1 (stereo not drawn) [Compound 6b, 2-(4-(cis-4,5-bis(4-chlorophenyl)-2-(2-isopropoxy-4-methoxyphenyl)-4,5-dihydro-1H-imidazole-1-carbonyl)-2-oxopiperazin-1-yl)-N-(8-((2-(2,6-dioxoopiperidin-3-yl)-1,3-dioxoisoindolin-4-yl)oxy)octyl)acetamide] | activate p53
2 | effectively degrade MDM2 | COc1ccc(C2=NC(c3ccc(Cl)cc3)C(c3ccc(Cl)cc3)N2C(=O)N2CCN(CC(=O)NCCCCCCCC#Cc3cccc4c3C(=O)N(C3CCC(=O)NC3=O)C4=O)C(=O)C2)c(OC(C)C)c1 (stereo not drawn) [Compound 16b, 2-(4-(cis-4,5-bis(4-chlorophenyl)-2-(2-isopropoxy-4-methoxyphenyl)-4,5-dihydro-1H-imidazole-1-carbonyl)-2-oxopiperazin-1-yl)-N-(9-(2-(2,6-dioxopiperidin-3-yl)-1,3-dioxoisoindolin-4-yl)non-8-yn-1-yl) acetamide] | activate p53
